Experimental data reported in patent US20180312493A1, “Antibiotic Compounds, Pharmaceutical Formulations Thereof And Methods And Uses Therefor” (Simon Fraser University, priority 2015, published 2018).
In brackets after ≈: the same amount, converted by molar mass. Where a name gives a salt, the structure may show the parent alone. Read-outs that look alike come from different tables or passages of the source.

What was measured:
[1] = system: VRE#2 (2010A); test: In vitro susceptibility, broth microdilution (MIC); type: cell-based, vancomycin resistant Enterococci; details: read-out: Antimicrobial activity (MIC) VRE#2
Summary of the method: (§1)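 MIC determined by CLSI 2-fold broth microdilution in cation-adjusted Mueller–Hinton broth at ~2.5×10^5 CFU/ml, final compound 0.031–64 μg/ml, 18–24 h at 37 °C. MIC is the lowest concentration giving complete growth inhibition by background-corrected OD600 versus compound-free wells; duplicate or triplicate wells, replicated at least twice.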

[2] = system: MRSA MW2 (USA400); test: In vitro susceptibility, broth microdilution (MIC); type: cell-based, methicillin resistant S. aureus; details: Staphylococcus aureus, read-out: Antimicrobial activity (MIC) MSRA USA400
Summary of the method: as §1

[3] = system: A. baumannii (ATCC 17978); test: In vitro susceptibility, broth microdilution (MIC); type: cell-based; details: Acinetobacter baumannii
Summary of the method: as §1

[4] = system: S. aureus (ATCC29213); test: In vitro susceptibility, broth microdilution (MIC); type: cell-based; details: Staphylococcus aureus
Summary of the method: (§2)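 CLSI 2-fold serial broth microdilution; K. pneumoniae C238 grown in L-broth, S. aureus ATCC 29213 in Mueller Hinton broth, plates incubated 18–24 h at 37 °C. MIC taken as lowest concentration giving complete growth inhibition by OD600 versus compound-free wells, background-subtracted.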

[5] = system: K. pneumoniae (C238); test: In vitro susceptibility, broth microdilution (MIC); type: cell-based; details: Klebsiella pneumoniae, read-out: Antimicrobial activity (MIC) K. pneumoniae
Summary of the method: as §2

[6] = molecular target: T1, MRSA Pyk (Staphylococcus aureus, UniProt Q6GG09); test: MRSA pyruvate kinase (PK) activity, continuous LDH-coupled assay; type: biochemical, methicillin resistant S. aureus (MRSA252)
T1 construct: made in house; host or cells: E. coli BL-21 (DE3)
Summary of the method: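 His-tagged MRSA PK (strain Sanger 252) and human PK isoforms expressed in E. coli BL-21 (DE3) and Ni-NTA purified, used at 15 nM in an LDH-coupled assay following NADH oxidation at 340 nm, 30° C, up to 5 min, ≤1% DMSO. IC50 from four-parameter variable-slope fit; Ki with PEP 2-20 mM, ADP fixed 2 mM, inhibitor 0-400 nM.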

[7] = system: A. baumannii (ATCC 19606); test: In vitro susceptibility, broth microdilution (MIC); type: cell-based; details: Acinetobacter baumannii, ATCC19606; A. baumannii ATCC 19606 (values without asterisk); read-out: Antimicrobial activity (MIC) A. baumannii
Summary of the method: as §1

[8] = system: MRSA (ATCC BAA-1762); test: In vitro susceptibility, broth microdilution (MIC); type: cell-based, methicillin resistant S. aureus; details: Staphylococcus aureus; MRSA ATCC BAA-1762; read-out: Antimicrobial activity (MIC) MRSA ATCC BAA1762
Summary of the method: as §1

[9] = ATCC17978, A. baumannii ATCC 17978 (values marked *), read-out: Antimicrobial activity (MIC) A. baumannii
[10] = S. aureus ATCC29213, 18-24 h, 37 C, read-out: Antimicrobial activity (MIC) S. aureus ATCC29213

T1 sequence (Q6GG09 whole entry): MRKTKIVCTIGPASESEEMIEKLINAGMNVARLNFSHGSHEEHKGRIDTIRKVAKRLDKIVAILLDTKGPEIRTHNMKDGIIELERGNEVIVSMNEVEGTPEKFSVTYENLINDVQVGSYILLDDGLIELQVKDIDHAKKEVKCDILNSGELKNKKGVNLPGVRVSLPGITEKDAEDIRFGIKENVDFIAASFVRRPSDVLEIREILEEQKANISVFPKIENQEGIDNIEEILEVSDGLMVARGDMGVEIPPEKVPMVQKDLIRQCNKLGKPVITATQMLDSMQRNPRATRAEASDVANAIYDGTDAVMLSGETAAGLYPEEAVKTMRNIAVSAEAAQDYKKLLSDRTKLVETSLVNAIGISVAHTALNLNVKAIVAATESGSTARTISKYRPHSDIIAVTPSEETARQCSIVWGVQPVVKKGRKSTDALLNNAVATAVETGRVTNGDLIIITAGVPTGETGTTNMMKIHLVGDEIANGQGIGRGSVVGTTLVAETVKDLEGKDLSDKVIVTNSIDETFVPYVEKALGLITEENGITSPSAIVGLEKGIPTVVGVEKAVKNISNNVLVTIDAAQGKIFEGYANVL

SMILES	MIC ([1]; VRE#2 (2010A))	MIC ([2]; MRSA MW2 (USA400))	MIC [3, 9]	MIC [4, 10]	MIC [5]	IC50 [6]	MIC [1]	MIC [2]	MIC ([3]; ATCC17978, read-out: Antimicrobial activity (MIC) A. baumannii)	MIC ([4]; ATCC29213, read-out: Antimicrobial activity (MIC) S. aureus ATCC29213)	MIC ([5]; K. pneumoniae (C238))	MIC [7]	MIC [8]
CN(C)CCC(=O)c1c(/C=C/c2ccc(Cl)cc2)[nH]c2cc(Br)ccc12.Cl [Compound 6, (E)-1-(6-Bromo-2-(4-chlorostyryl)-1H-indol-3-yl)-3-(dimethylamino)propan-1-one Hydrochloride]	8 µg/mL	8 µg/mL	64 µg/mL	8 µg/mL	8 µg/mL	100 to 1000 nM							
CN1CCN(CCC(=O)c2c(/C=C/c3ccc(Cl)cc3)[nH]c3cc(Br)ccc23)CC1 [Compound 7, (E)-1-(6-Bromo-2-(4-chlorostyryl)-1H-indol-3-yl)-3-(4-methylpiperazin-1-yl)propan-1-one Hydrochloride]					8 µg/mL	100 to 1000 nM	8 µg/mL	8 µg/mL	> 64 µg/mL	8 µg/mL			
Oc1cc(/C=C/c2cc3ccc(Br)cc3[nH]2)ccc1Cl [Compound 11, (E)-5-(2-(6-bromo-1H-indol-2-yl)vinyl)-2-chlorophenol]		2 µg/mL (≈ 5.74 µM)	> 64 µg/mL	2 µg/mL (≈ 5.74 µM)							4 µg/mL (≈ 11.5 µM)		
CN(C)CCOc1cc(/C=C/c2cc3ccc(Br)cc3[nH]2)ccc1Cl [Compound 12, (E)-2-(5-(2-(6-bromo-1H-indol-2-yl)vinyl)-2-chlorophenoxy)-N,N-dimethylethanamine]		4 µg/mL (≈ 9.53 µM)		4 µg/mL (≈ 9.53 µM)		100 to 1000 nM					4 µg/mL (≈ 9.53 µM)	16 µg/mL (≈ 38.1 µM)	
CN1CCN(CCCNC(=O)c2c(/C=C/c3ccc(Cl)cc3)[nH]c3cc(Br)ccc23)CC1 [Compound 43, (E)-6-Bromo-2-(4-chlorostyryl)-N-(3-(4-methylpiperazin-1-yl)propyl)-1 H-indole-3-carboxamide]	16 µg/mL (≈ 31 µM)	32 µg/mL (≈ 62 µM)		32 µg/mL (≈ 62 µM)		< 100 nM					32 µg/mL (≈ 62 µM)		
CN1CCN(CCCCNC(=O)c2c(/C=C/c3ccc(Cl)cc3)[nH]c3cc(Br)ccc23)CC1 [Compound 44, (E)-6-Bromo-2-(4-chlorostyryl)-N-(4-(4-methylpiperazin-1-yl)butyl)-1 H-indole-3-carboxamide]	16 µg/mL (≈ 30.2 µM)	32 µg/mL (≈ 60.4 µM)		32 µg/mL (≈ 60.4 µM)		100 to 1000 nM					32 µg/mL (≈ 60.4 µM)		
CN1CCN(CCOC(=O)c2c(/C=C/c3ccc(Cl)cc3)[nH]c3cc(Br)ccc23)CC1 [Compound 61, 2-(4-Methylpiperazin-1-yl)ethyl (E)-6-bromo-2-(4-chlorostyryl)-1H-indole-3-carboxylate]	4 µg/mL (≈ 7.95 µM)	4 µg/mL (≈ 7.95 µM)	> 64 µg/mL	4 µg/mL (≈ 7.95 µM)		100 to 1000 nM					4 µg/mL (≈ 7.95 µM)		
COC(=O)C(=O)c1c(/C=C/c2ccc(Cl)cc2)[nH]c2cc(Br)ccc12 [Compound 86, (E)-Methyl 2-(6-bromo-2-(4-chlorostyryl)-1H-indol-3-yl)-2-oxoacetate]	64 µg/mL (≈ 153 µM)	64 µg/mL (≈ 153 µM)		64 µg/mL (≈ 153 µM)		< 100 nM					> 64 µg/mL		
CNC(=O)C(=O)c1c(/C=C/c2ccc(Cl)cc2)[nH]c2cc(Br)ccc12 [Compound 87, (E)-2-(6-bromo-2-(4-chlorostyryl)-1H-indol-3-yl)-N-methyl-2-oxoacetamide]	> 64 µg/mL	> 64 µg/mL		> 64 µg/mL		< 100 nM					> 64 µg/mL		
O=C(Nc1c(/C=C/c2ccc(Cl)cc2)[nH]c2cc(Br)ccc12)C(F)(F)F [Compound 93, (E)-N-(6-bromo-2-(4-chlorostyryl)-1H-indol-3-yl)-2,2,2-trifluoroacetamide]	64 µg/mL (≈ 144 µM)	> 64 µg/mL		32 µg/mL (≈ 72.1 µM)	> 64 µg/mL	< 100 nM							
CC(=O)Nc1c(/C=C/c2ccc(Cl)cc2)[nH]c2cc(Br)ccc12 [Compound 94, (E)-N-(6-bromo-2-(4-chlorostyryl)-1H-indol-3-yl)acetamide]	> 64 µg/mL	> 64 µg/mL		32 µg/mL (≈ 82.1 µM)		100 to 1000 nM					> 64 µg/mL		
O=C(CO)Nc1c(/C=C/c2ccc(Cl)cc2)[nH]c2cc(Br)ccc12 [Compound 95, (E)-N-(6-bromo-2-(4-chlorostyryl)-1H-indol-3-yl)-2-hydroxyacetamide]	64 µg/mL (≈ 158 µM)	64 µg/mL (≈ 158 µM)		32 µg/mL (≈ 78.9 µM)		100 to 1000 nM					64 µg/mL (≈ 158 µM)		
CC(=O)Nc1c(CCc2ccc(Cl)cc2)[nH]c2cc(Br)ccc12 [Compound 96, N-(6-Bromo-2-(4-chlorophenethyl)-1H-indol-3-yl)acetamide]	> 64 µg/mL	> 64 µg/mL		64 µg/mL (≈ 163 µM)		> 1000 nM					> 64 µg/mL		
CN1CCN(CCNC(=O)CCCC(=O)c2c(-c3cc4cc(Cl)ccc4[nH]3)[nH]c3cc(Br)ccc23)CC1 [Compound 106, 5-(6-bromo-5′-chloro-1H,1′H-[2,2′-biindol]-3-yl)-N-(2-(4-methylpiperazin-1-yl)ethyl)-5-oxopentanamide]	8 µg/mL (≈ 13.7 µM)	8 µg/mL (≈ 13.7 µM)		8 µg/mL (≈ 13.7 µM)		< 100 nM					8 µg/mL (≈ 13.7 µM)	> 64 µg/mL	
CN(C)CCNC(=O)CCCC(=O)c1c(-c2cc3cc(Cl)ccc3[nH]2)[nH]c2cc(Br)ccc12 [Compound 107, 5-(6-bromo-5′-chloro-1H,1′H-[2,2′-biindol]-3-yl)-N-(2-(dimethylamino)ethyl)-5-oxopentanamide]	4 µg/mL (≈ 7.55 µM)	4 µg/mL (≈ 7.55 µM)		4 µg/mL (≈ 7.55 µM)		< 100 nM					4 µg/mL (≈ 7.55 µM)		
O=C(O)CCCC(=O)c1c(-c2cc3cc(Cl)ccc3[nH]2)[nH]c2cc(-c3cc4cc(Cl)ccc4[nH]3)ccc12 [Compound 108, 5-(5,5″-dichloro-1H,1′H,1″H-[2,2′:6′,2″-terindol]-3′-yl)-5-oxopentanoic Acid]	2 µg/mL (≈ 3.77 µM)	2 µg/mL (≈ 3.77 µM)		1 µg/mL (≈ 1.89 µM)		> 1000 nM					2 µg/mL (≈ 3.77 µM)		
CC(C)c1nc2c(cc1-c1ccc(Cl)cc1)[nH]c1cc(Br)ccc12 [Compound 114, 7-bromo-3-(4-chlorophenyl)-2-isopropyl-5H-pyrido[3,2-b]indole]	4 µg/mL (≈ 10 µM)	8 µg/mL (≈ 20 µM)		32 µg/mL (≈ 80.1 µM)		100 to 1000 nM					8 µg/mL (≈ 20 µM)		
O=C(O)CCNC(=O)c1c(-c2cc3cc(Cl)ccc3[nH]2)[nH]c2cc(Br)ccc12 [Compound 205, 3-(6-Bromo-5′-chloro-1H,1′H-[2,2′-biindole]-3-carboxamido)propanoic Acid]		32 µg/mL (≈ 69.5 µM)	> 64 µg/mL	32 µg/mL (≈ 69.5 µM)		< 100 nM							64 µg/mL (≈ 139 µM)
Clc1cc2nc(-c3cc4ccc(Br)cc4[nH]3)[nH]c2cc1Cl [Compound 207, 2-(6-Bromo-1H-indol-2-yl)-5,6-dichloro-1H-benzo[d]imidazole]	32 µg/mL (≈ 84 µM)	1 µg/mL (≈ 2.62 µM)		0.5 µg/mL (≈ 1.31 µM)		< 100 nM					16 µg/mL (≈ 42 µM)	> 64 µg/mL	
